Assay results: US6716628B2, “Chondrogenesis promoters and indolin-2-one derivatives” (Chugai Seiyaku Kabushiki Kaisha, priority 1999, dated 2004)

Legend:
[1] = test system: rabbit osteoarthritis model; assay: Pathology suppressing effect in a rabbit osteoarthritis model; type: in vivo; details: 3.0 mmol/L, vs solvent alone
Protocol: Rabbit osteoarthritis model was prepared using 12-week-old male NZW rabbits (Kitayama Labes Co., Ltd.), and performing partial menisectomy in right knee, and excision of the lateral collateral ligament and sesamoid ligament, according to the method of Colombo et al. (Arthritis Rheum. 26(7):875-886, 1983). Beginning on the 7th day after the operation, 500 μL of a 50% dimethylsulfoxide (DMSO) physiological saline solution (DMSO: Junsei Chemical Corp., physiological saline: Otsuka Pharmaceutical Corp.) or 3.0 mmol/L of compound A solution was intraarticularly administered once a day into the right knee joint for a period of 3 weeks. The daily dosage of compound A was 816.8 μg.
On the day following the day of final administration, the right femoral distal and crural proximal sections were taken, and the femur was immersed overnight in 2% paraformaldehyde-2.5% glutaraldehyde fixing solution (both by Wako Pure Chemical Industries) for fixation, while the crus was immersed for one week in 20% neutral buffered formalin (Wako Pure Chemical Industries) for fixation.
After post-fixation of the femoral distal section with 1% osmium solution (Wako Pure Chemical Industries), it was dipped in an increasing ethanol series for dehydrogenation, and then substituted with isoamyl acetate and subsequently dried with a critical point drying apparatus (Hitachi Co., Ltd.). The dried tissue surface was coated with gold using an ion sputter coating apparatus (Eiko Corp.), and the femoral condyle cartilage surface was observed using a scanning electron microscope (Hitachi Co., Ltd.) (FIGS. 15A and 15B). The area of the damaged sections of the articular cartilage in the electron photomicrograph was measured using IPAP image analysis software (Sumika Technoservice Co., Ltd.), and judged on the scale shown in Table 11 below.
The proximal region of tibia was trimmed with a band saw (EXAKT Corp.) and then demineralized for 4 weeks with 20% EDTA-4Na solution (pH 7.4, Wako Pure Chemical Industries). […]

[2] = test system: common mouse chondrocyte and adipocyte precursor cell line (CL-1); assay: Uptake of 35S-labeled sulfuric acid into CL-1; type: cell-based; details: 10 μmol/L (A and F also 1 or 5 μmol/L), 48 h culture, uptake in final 24 h
Protocol: The above-mentioned cell line CL-1 was cultured in a 96-well cell culturing plate (Wallac Corp.) for a liquid scintillation counter (Wallac Corp.) to a cell density of 1000 per well. The medium used was α-MEM (GIBCO Corp.) containing 100 U/mL of penicillin (Meiji Seika Co., Ltd.), 100 μg/mL of streptomycin (Banyu Pharmaceutical Corp.) and 10% fetal bovine serum (INTERGEN Corp.). When the CL-1 cells reached confluency, the medium was exchanged with one containing 10 μmol/L of compounds A, B, C, D, E, F and G, and after 24 hours, ^35S-labeled sulfuric acid was added at 0.5 μCi per well and culturing was continued. For compounds A and F, a medium was also prepared with a concentration of 1 or 5 μmol/L. After 24 hours, the medium was discarded and the cell layer was fixed for 2 hours at room temperature using 0.2 mL of 5% paraformaldehyde (0.1 mol/L phosphate buffer solution (pH 7.4, Wako Pure Chemical Industries) containing 0.4% cetylpyridinium chloride (Wako Pure Chemical Industries). After discarding the fixing solution, it was washed once with the same solution and the washed solution was discarded. After adding 0.1 mL of scintillator (Wallac Corp.) to the cell layer and stirring, the radioactivity was measured with a scintillation counter (Wallac Corp.).

[3] = test system: rat primary culture articular chondrocytes; assay: Uptake of 35S-labeled sulfuric acid into glycosaminoglycan (cartilage matrix synthesis); type: cell-based; details: 10 μmol/L of compound, vs ethanol 1% final concentration control solvent
Source text: Articular chondrocytes were trimmed from the femoral knee joint of 6-week-old male SD rats (Nihon SLC Corp.) using a scalpel, and then digested in 0.3% collagenase (WORTHINGTON Corp.) and cultivated (Calcif. Tissue Int. 19:179-187,1975).
The isolated articular chondrocytes were used to measure glycosaminoglycan synthesis in the cartilage matrix by measurement of the uptake of ^35S-labeled sulfuric acid (Amersham Co., Ltd.) into glycosaminoglycan. Specifically, the articular chondrocytes were cultured in a 96-well cell culturing plate (FALCON Corp.) to a cell density of 10,000 per well. […]
When the chondrocytes reached confluency, the medium was exchanged with one having a serum concentration of 0.3% and culturing was carried out overnight, after which the medium was exchanged with the same type also containing 10 μmol/L of compound A, and then after 3 hours, ^35S-labeled sulfuric acid (Amersham Co., Ltd.) was added at 0.5 μCi per well and culturing was carried out for 24 hours. […] The sample was then filtered with glass fiber filter paper (Toyo Filter Paper Corp.), the filter paper was washed 3 times with 2 mL of 1% cetylpyridinium chloride (20 mmol/L), one each was placed in a liquid scintillation counting vial (PACKARD Corp.), 10 mL of scintillator (Nacalai Tesque Corp.) was poured in, and the radioactivity was measured with a liquid scintillation counter (PACKARD Corp.).

[4] = 500 μL intraarticular once a day for 3 weeks from day 7 after operation

**Q.** With `CCOC(CN1C(=O)[C@](CC(=O)Nc2ccc(C)cc2)(NC(=O)Nc2ccc(C)cc2)c2ccccc21)OCC` [Compound A, (+)-1-(2,2-diethoxyethyl)-3-((4-methylphenyl)aminocarbonylmethyl)-3-(N′-(4-methylphenyl)ureido)indolin-2-one] as the compound, how does the “medium grade lesion area of articular cartilage (scanning electron microscope)” value [1, 4] read?
**A.** significantly smaller area of damage

**Q.** And the “total lesion area of articular cartilage (scanning electron microscope)” value [1, 4]?
**A.** significantly smaller area of damage

**Q.** What about the “total histological scores, except for the loss of superficial layer” value ([1]; 500 μL intraarticular once a day for 3 weeks, Safranin O stained tibia sections) of the same compound?
**A.** significantly lower

**Q.** And the “differentiation of CL-1 to chondrocytes (from 35S-labeled sulfuric acid uptake)” value [2]?
**A.** clearly promote

**Q.** And the “uptake of 35S-labeled sulfuric acid” value [3]?
**A.** significantly increased
